In patent publication EP4524128A1, “BENZOPHENONE CROSSLINKERS” (Hemoteq AG, priority 2023, dated 2025):
“Also recorded” adds a separate entry of the source.

Assay: Solubility in solvents and monomer
Type: physicochemical

SMILES	Solubility in N-vinylpyrrolidone	Solubility in THF	Solubility in acetone (acetone)	Solubility in chloroform (chloroform)	Solubility in deionized water (deionized water)	Solubility in ethanol (ethanol)	Solubility in ethyl acetate (ethyl acetate)	Solubility in n-heptane (n-heptane)
C=C(C)C(=O)NCCCNC(=O)c1ccc(C(=O)c2ccccc2)cc1 [APMA-BBC, N-[3-(4-benzoylbenzamido)propyl]methacrylamide]	readily soluble; also recorded: Freely soluble	Freely soluble	–	–	–	–	–	–
C=C(C)C(=O)OCCOC(=O)c1ccc(C(=O)c2ccccc2)cc1 [HEMA-BBA, 1-(4-benzoylbenzoic acid)-2-methaacrylic acid-glycolester]	only slowly soluble	moderately soluble	insoluble	highly soluble	insoluble	insoluble	insoluble	slightly to sparingly soluble
